Results published in ChEMBL document CHEMBL4507275, “Data for DCP probe BI-2545” (2021).

Legend:
[1] = test system: Receptor-type tyrosine-protein kinase FLT3 (Homo sapiens), P36888 [D835H]; conditions: Compound concentration 1000.0 nM
[2] = molecular target: Serine/threonine-protein kinase D2 (Homo sapiens) (UniProt Q9BZL6); conditions: Compound concentration 1000.0 nM
[3] = molecular target: Atypical kinase COQ8B, mitochondrial (Homo sapiens) (UniProt Q96D53); conditions: Compound concentration 1000.0 nM
[4] = molecular target: Tyrosine-protein kinase receptor UFO (Homo sapiens) (UniProt P30530); conditions: Compound concentration 1000.0 nM
Tyrosine-protein kinase receptor UFO (Homo sapiens), sequence (P30530 whole entry): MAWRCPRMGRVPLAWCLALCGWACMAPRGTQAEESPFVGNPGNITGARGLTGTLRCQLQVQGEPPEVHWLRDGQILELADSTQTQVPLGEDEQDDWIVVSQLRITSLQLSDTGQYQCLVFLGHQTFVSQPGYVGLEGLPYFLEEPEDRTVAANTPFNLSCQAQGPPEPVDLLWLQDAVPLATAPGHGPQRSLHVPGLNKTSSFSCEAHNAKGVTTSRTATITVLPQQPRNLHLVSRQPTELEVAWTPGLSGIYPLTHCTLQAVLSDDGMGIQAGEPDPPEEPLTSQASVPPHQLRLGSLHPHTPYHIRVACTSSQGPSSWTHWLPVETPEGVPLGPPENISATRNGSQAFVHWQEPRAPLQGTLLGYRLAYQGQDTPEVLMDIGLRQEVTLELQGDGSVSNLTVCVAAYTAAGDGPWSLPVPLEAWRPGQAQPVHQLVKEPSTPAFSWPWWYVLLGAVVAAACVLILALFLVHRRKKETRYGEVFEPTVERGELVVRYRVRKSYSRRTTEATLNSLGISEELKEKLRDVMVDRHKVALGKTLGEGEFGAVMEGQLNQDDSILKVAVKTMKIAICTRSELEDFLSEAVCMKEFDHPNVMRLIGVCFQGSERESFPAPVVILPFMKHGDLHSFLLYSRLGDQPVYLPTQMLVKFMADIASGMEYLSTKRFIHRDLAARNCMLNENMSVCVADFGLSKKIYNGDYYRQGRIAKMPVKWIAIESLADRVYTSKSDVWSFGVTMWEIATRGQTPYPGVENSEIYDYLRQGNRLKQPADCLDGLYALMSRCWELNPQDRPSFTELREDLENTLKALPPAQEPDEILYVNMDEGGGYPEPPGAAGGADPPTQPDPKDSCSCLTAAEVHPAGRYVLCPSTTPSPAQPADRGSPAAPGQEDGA

[5] = molecular target: Mitogen-activated protein kinase 12 (Homo sapiens) (UniProt P53778); conditions: Compound concentration 1000.0 nM
[6] = molecular target: Serine/threonine-protein kinase PAK 1 (Homo sapiens) (UniProt Q13153); conditions: Compound concentration 1000.0 nM
[7] = molecular target: Tyrosine-protein kinase ZAP-70 (Homo sapiens) (UniProt P43403); conditions: Compound concentration 1000.0 nM
[8] = molecular target: Serine/threonine-protein kinase N1 (Homo sapiens) (UniProt Q16512); conditions: Compound concentration 1000.0 nM
[9] = test system: Tyrosine-protein kinase ABL1 (Homo sapiens), P00519 [F317I]; conditions: Compound concentration 1000.0 nM
[10] = molecular target: Tyrosine-protein kinase Srms (Homo sapiens) (UniProt Q9H3Y6); conditions: Compound concentration 1000.0 nM
[11] = test system: Receptor-type tyrosine-protein kinase FLT3 (Homo sapiens), P36888 [R834Q]; conditions: Compound concentration 1000.0 nM
[12] = molecular target: Mitogen-activated protein kinase kinase kinase 12 (Homo sapiens) (UniProt Q12852); conditions: Compound concentration 1000.0 nM
Mitogen-activated protein kinase kinase kinase 12 (Homo sapiens), sequence (Q12852 whole entry): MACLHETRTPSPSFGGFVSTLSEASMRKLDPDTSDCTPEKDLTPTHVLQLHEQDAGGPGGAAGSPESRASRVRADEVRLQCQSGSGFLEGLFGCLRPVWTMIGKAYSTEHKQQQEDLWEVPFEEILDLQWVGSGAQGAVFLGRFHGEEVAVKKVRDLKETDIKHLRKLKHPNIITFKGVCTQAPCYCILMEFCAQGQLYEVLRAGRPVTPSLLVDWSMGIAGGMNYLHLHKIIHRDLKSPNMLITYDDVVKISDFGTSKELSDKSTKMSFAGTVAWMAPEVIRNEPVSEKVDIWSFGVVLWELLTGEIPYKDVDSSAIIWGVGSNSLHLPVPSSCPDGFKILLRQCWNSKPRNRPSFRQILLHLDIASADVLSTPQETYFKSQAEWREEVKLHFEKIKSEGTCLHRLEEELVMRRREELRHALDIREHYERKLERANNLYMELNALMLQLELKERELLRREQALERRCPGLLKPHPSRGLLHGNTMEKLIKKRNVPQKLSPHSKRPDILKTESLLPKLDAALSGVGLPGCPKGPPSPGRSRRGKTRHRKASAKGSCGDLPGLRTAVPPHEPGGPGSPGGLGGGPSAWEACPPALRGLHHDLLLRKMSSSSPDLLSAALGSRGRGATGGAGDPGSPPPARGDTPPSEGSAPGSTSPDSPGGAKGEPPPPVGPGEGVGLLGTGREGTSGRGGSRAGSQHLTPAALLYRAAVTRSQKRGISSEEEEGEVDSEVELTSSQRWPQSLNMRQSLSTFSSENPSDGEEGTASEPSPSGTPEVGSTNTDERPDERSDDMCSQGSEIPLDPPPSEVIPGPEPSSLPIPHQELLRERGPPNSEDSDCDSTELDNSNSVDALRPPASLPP

[13] = molecular target: Receptor tyrosine-protein kinase erbB-3 (Homo sapiens) (UniProt P21860); conditions: Compound concentration 1000.0 nM
[14] = molecular target: Ephrin type-A receptor 4 (Homo sapiens) (UniProt P54764); conditions: Compound concentration 1000.0 nM
[15] = molecular target: Serine/threonine-protein kinase PLK3 (Homo sapiens) (UniProt Q9H4B4); conditions: Compound concentration 1000.0 nM
[16] = molecular target: Serine/threonine-protein kinase Nek3 (Homo sapiens) (UniProt P51956); conditions: Compound concentration 1000.0 nM
Serine/threonine-protein kinase Nek3 (Homo sapiens), sequence (P51956 whole entry): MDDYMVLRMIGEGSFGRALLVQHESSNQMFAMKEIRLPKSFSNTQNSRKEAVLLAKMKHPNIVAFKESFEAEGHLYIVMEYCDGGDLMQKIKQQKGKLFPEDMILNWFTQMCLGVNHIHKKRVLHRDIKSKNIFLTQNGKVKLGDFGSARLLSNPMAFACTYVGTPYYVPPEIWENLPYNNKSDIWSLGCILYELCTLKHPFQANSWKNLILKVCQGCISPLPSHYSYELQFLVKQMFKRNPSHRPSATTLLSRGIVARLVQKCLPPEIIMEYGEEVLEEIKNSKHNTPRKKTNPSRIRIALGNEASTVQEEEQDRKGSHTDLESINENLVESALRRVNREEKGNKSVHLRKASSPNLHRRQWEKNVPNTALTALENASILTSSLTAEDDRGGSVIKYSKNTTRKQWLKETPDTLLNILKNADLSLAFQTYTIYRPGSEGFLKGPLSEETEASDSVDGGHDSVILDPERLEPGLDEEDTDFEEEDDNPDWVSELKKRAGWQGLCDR

[17] = molecular target: Serine/threonine-protein kinase WNK2 (Homo sapiens) (UniProt Q9Y3S1); conditions: Compound concentration 1000.0 nM
[18] = molecular target: TGF-beta receptor type-1 (Homo sapiens) (UniProt P36897); conditions: Compound concentration 1000.0 nM
[19] = molecular target: TGF-beta receptor type-2 (Homo sapiens) (UniProt P37173); conditions: Compound concentration 1000.0 nM
[20] = molecular target: Glycogen synthase kinase-3 beta (Homo sapiens) (UniProt P49841); conditions: Compound concentration 1000.0 nM
[21] = test system: Epidermal growth factor receptor (Homo sapiens), P00533 [UNDEFINED MUTATION]; conditions: Compound concentration 1000.0 nM
[22] = molecular target: Serine/threonine-protein kinase RIO2 (Homo sapiens) (UniProt Q9BVS4); conditions: Compound concentration 1000.0 nM
Serine/threonine-protein kinase RIO2 (Homo sapiens), sequence (Q9BVS4 whole entry, looked up): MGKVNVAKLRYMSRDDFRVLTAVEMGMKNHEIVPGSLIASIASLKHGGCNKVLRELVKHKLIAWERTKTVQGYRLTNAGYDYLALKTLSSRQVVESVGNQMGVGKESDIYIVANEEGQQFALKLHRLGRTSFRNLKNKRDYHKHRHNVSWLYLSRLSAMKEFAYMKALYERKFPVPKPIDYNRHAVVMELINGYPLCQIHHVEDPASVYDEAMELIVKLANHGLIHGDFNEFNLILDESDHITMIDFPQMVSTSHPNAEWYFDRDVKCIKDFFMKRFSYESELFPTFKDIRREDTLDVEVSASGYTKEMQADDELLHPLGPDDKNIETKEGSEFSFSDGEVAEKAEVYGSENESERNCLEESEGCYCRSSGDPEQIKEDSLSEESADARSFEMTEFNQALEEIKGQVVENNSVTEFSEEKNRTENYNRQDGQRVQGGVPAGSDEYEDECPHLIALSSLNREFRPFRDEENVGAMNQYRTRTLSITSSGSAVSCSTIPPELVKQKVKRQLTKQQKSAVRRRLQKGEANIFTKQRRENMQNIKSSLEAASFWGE

[23] = test system: Mast/stem cell growth factor receptor Kit (Homo sapiens), P10721 [V559D,V654A]; conditions: Compound concentration 1000.0 nM
Mast/stem cell growth factor receptor Kit (Homo sapiens), P10721 [V559D,V654A], sequence (P10721 whole entry V559D/V654A, canonical isoform): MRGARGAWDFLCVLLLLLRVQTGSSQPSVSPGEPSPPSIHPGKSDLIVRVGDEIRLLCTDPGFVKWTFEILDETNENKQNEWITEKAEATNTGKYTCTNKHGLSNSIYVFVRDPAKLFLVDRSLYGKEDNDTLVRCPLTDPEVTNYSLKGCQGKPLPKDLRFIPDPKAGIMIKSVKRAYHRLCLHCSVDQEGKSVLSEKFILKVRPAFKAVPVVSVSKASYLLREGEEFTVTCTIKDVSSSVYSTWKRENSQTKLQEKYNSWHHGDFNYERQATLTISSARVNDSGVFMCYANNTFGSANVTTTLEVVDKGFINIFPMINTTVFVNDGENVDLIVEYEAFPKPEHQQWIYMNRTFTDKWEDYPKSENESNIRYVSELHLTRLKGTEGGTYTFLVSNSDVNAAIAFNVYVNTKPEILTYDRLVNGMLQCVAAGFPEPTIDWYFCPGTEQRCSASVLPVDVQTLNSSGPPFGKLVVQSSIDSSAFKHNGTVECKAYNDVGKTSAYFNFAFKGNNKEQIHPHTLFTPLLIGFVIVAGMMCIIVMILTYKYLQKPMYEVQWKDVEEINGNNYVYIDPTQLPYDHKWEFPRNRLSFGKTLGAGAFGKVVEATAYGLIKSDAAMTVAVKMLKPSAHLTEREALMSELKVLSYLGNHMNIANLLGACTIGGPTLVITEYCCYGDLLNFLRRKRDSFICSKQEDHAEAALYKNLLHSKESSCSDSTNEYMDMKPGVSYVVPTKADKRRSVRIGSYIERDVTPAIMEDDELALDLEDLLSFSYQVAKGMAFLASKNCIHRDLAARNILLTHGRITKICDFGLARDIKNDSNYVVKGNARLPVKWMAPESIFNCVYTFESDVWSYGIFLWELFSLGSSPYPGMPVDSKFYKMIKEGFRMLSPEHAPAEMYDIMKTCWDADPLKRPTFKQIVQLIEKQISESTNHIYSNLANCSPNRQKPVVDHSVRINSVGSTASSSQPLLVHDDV

[24] = molecular target: Phosphatidylinositol 4,5-bisphosphate 3-kinase catalytic subunit beta isoform (Homo sapiens) (UniProt P42338); conditions: Compound concentration 1000.0 nM
[25] = molecular target: Testis-specific serine/threonine-protein kinase 3 (Homo sapiens) (UniProt Q96PN8); conditions: Compound concentration 1000.0 nM
Testis-specific serine/threonine-protein kinase 3 (Homo sapiens), sequence (Q96PN8 whole entry): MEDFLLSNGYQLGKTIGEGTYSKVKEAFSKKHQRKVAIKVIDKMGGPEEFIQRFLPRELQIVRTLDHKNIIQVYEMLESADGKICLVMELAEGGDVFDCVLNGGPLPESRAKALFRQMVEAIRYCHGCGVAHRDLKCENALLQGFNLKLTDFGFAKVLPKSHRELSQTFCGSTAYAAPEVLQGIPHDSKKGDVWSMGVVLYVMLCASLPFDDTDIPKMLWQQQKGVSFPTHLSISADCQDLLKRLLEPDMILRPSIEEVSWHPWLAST

[26] = molecular target: SNF-related serine/threonine-protein kinase (Homo sapiens) (UniProt Q9NRH2); conditions: Compound concentration 1000.0 nM
[27] = molecular target: Receptor-interacting serine/threonine-protein kinase 4 (Homo sapiens) (UniProt P57078); conditions: Compound concentration 1000.0 nM
[28] = molecular target: Serine/threonine-protein kinase PAK 2 (Homo sapiens) (UniProt Q13177); conditions: Compound concentration 1000.0 nM
Serine/threonine-protein kinase PAK 2 (Homo sapiens), sequence (Q13177 whole entry): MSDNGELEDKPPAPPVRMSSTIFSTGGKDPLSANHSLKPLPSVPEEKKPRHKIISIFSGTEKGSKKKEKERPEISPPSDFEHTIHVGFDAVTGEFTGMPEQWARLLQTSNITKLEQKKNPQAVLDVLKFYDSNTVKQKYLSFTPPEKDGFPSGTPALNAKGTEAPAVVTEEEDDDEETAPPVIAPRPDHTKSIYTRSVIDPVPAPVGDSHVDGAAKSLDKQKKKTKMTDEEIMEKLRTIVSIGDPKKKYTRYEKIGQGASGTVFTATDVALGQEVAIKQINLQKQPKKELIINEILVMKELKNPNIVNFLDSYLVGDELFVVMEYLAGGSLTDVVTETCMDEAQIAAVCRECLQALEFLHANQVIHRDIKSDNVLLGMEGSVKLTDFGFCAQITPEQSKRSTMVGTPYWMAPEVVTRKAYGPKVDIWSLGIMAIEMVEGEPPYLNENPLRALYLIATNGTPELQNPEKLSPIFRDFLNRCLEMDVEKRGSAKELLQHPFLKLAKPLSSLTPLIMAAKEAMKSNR

[29] = molecular target: MAP kinase-activated protein kinase 5 (Homo sapiens) (UniProt Q8IW41); conditions: Compound concentration 1000.0 nM
MAP kinase-activated protein kinase 5 (Homo sapiens), sequence (Q8IW41 whole entry): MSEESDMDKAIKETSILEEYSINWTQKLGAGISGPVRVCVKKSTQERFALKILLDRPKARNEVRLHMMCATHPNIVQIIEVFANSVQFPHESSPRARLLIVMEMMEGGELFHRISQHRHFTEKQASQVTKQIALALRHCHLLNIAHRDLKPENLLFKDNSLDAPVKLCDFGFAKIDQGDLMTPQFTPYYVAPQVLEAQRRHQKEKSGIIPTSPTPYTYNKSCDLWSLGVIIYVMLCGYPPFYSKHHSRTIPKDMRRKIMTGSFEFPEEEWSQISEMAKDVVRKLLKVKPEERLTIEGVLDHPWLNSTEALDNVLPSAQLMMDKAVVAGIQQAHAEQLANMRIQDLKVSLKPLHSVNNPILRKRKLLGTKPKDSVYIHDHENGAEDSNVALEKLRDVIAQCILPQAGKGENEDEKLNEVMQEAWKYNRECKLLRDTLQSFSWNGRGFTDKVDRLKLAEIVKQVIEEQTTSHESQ

[30] = molecular target: Tyrosine-protein kinase Fgr (Homo sapiens) (UniProt P09769); conditions: Compound concentration 1000.0 nM
[31] = molecular target: GABA-A receptor; anion channel (Rattus norvegicus) (UniProt O09028+P15431+P18506+P18508+P19969+P20236+P23574+P23576+P28471+P28473+P30191+P62813+P63079+P63138+Q91ZM7+Q9ES14); conditions: Compound concentration 10.0 uM
[32] = molecular target: Mitogen-activated protein kinase kinase kinase 13 (Homo sapiens) (UniProt O43283); conditions: Compound concentration 1000.0 nM
[33] = molecular target: Serine/threonine-protein kinase 38 (Homo sapiens) (UniProt Q15208); conditions: Compound concentration 1000.0 nM
[34] = molecular target: T1, Muscarinic acetylcholine receptor M2 (Homo sapiens) (UniProt P08172); conditions: Compound concentration 10.0 uM
T1 sequence (whole entry): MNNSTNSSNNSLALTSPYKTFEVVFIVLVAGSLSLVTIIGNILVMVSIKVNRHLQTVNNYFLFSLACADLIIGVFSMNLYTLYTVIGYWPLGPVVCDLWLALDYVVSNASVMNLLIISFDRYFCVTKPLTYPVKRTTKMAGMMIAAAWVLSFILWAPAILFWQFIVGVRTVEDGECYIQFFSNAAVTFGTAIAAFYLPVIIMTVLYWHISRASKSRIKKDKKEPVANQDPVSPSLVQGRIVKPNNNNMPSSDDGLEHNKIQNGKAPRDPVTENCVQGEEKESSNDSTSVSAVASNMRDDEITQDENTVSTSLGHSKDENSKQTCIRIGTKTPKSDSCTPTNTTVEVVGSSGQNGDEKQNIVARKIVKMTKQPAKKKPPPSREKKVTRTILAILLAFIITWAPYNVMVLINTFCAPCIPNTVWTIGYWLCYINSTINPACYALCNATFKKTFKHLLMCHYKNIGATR

[35] = molecular target: RAF proto-oncogene serine/threonine-protein kinase (Homo sapiens) (UniProt P04049); conditions: Compound concentration 1000.0 nM
[36] = molecular target: Platelet-derived growth factor receptor alpha (Homo sapiens) (UniProt P16234); conditions: Compound concentration 1000.0 nM
[37] = test system: Epidermal growth factor receptor (Homo sapiens), P00533 [G719C]; conditions: Compound concentration 1000.0 nM

SMILES | residual activity [1] [%] | residual activity [2] [%] | residual activity [3] [%] | residual activity [4] [%] | residual activity [5] [%] | residual activity [6] [%] | residual activity [7] [%] | residual activity [8] [%] | residual activity [9] [%] | residual activity [10] [%] | residual activity [11] [%] | residual activity [12] [%] | residual activity [13] [%] | residual activity [14] [%] | residual activity [15] [%] | residual activity [16] [%] | residual activity [17] [%] | residual activity [18] [%] | residual activity [19] [%] | residual activity [20] [%] | further results
O=C(NC[C@@H]1[C@H]2CN(C(=O)OCc3cc(C(F)(F)F)cc(C(F)(F)F)c3)C[C@@H]12)c1ccc2[nH]nnc2c1 [BI 2545] | 100 | 85 | 94 | 87 | 100 | 100 | 60 | 100 | 89 | 83 | 88 | 100 | 96 | 82 | 89 | 100 | 84 | 97 | 100 | 98 | residual activity [21]: 100%; residual activity [22]: 94%; residual activity [23]: 99%; residual activity [24]: 100%; residual activity [25]: 100%; residual activity [26]: 77%; residual activity [27]: 100%; residual activity [28]: 100%; residual activity [29]: 86%; residual activity [30]: 88%; inhibition [31]: 1.13%; residual activity [32]: 86%; residual activity [33]: 75%; inhibition [34]: 7.11%; residual activity [35]: 100%; residual activity [36]: 97%; residual activity [37]: 100%
Cc1nccc(COC(=O)N2C[C@@H]3[C@@H](CNC(=O)c4ccc5[nH]nnc5c4)[C@@H]3C2)n1 [BI 3017] | 97 | 92 | 100 | 88 | 79 | 92 | 97 | 100 | 100 | 87 | 85 | 72 | 59 | 98 | 73 | 100 | 79 | 100 | 100 | 100 | residual activity [21]: 100%; residual activity [22]: 97%; residual activity [23]: 41%; residual activity [24]: 84%; residual activity [25]: 100%; residual activity [26]: 98%; residual activity [27]: 98%; residual activity [28]: 100%; residual activity [29]: 97%; residual activity [30]: 100%; inhibition [31]: 9.85%; residual activity [32]: 65%; residual activity [33]: 100%; inhibition [34]: -5.6%; residual activity [35]: 94%; residual activity [36]: 80%; residual activity [37]: 100%
